{"source": "patent US20240252432A1", "about": "“COMPOSITIONS, METHODS AND SYSTEMS FOR AEROSOL DRUG DELIVERY” (ASTRAZENECA PHARMACEUTICALS LP, priority 2021, published 2024)", "key": {"[1]": {"conditions": "cited from earlier work"}, "[2]": {"assay": "Particle size distribution by laser diffraction", "type": "physicochemical", "excerpt": "When referred to herein, the term “optical diameter” indicates the size of a particle as measured by the Fraunhofer diffraction mode using a laser diffraction particle size analyzer equipped with a dry powder dispenser (e.g., Sympatec GmbH, Clasthal-Zellerfeld, Germany).\nSuspending particles were manufactured by spray drying an emulsion of PFOB (perfluorooctyl bromide) and water stabilized by DSPC (1,2-Distearoyl-sn-Glycero-3-Phosphocholine). […] The particle size distribution of the suspending particles was determined by laser diffraction.\nActive agent particles formed of budesonide, 16,17-(butylidenebis(oxy))-11,21-dihydroxy-(11-β,16-α)-pregna-1,4-diene-3,20-dione, were formed by micronizing budesonide using a jet mill. The particle size distribution of the budesonide (BD) was determined by laser diffraction."}, "[3]": {"assay": "Aerodynamic particle size distribution by NGI of BDA formulations (Example 5)", "type": "physicochemical", "conditions": "dual co-suspension of budesonide and albuterol in HFO-1234ze(E); stored valve down, protected, 25° C./60% RH"}, "[4]": {"assay": "Aerodynamic particle size distribution by NGI of BFF formulations (Example 4)", "type": "physicochemical", "conditions": "dual co-suspension of budesonide and formoterol in HFO-1234ze(E); stored valve down, protected, 25° C./60% RH"}}, "note": "Like-named read-outs stand apart in the source and are kept apart here.", "data": [{"compound": "FC(C(F)(F)F)C(F)(F)F", "note": "[HFA-227ea, 1,1,1,2,3,3,3-Heptafluoropropane]", "values": [{"measurement": "Water Solubility in Propellant", "setting": "[1]; @25", "value": "610@25 ppm"}]}, {"compound": "C[N+]1(C)CCC(OC(=O)C(O)(c2ccccc2)C2CCCC2)C1.[Br-]", "note": "(centres unmarked) [glycopyrrolate, Pyrrolidinium, 3-((cyclopentylhydroxyphenylacetyl)oxy)-1,1-dimethyl-, bromide]", "values": [{"measurement": "optical diameter below which 50% by volume of the particles lie", "setting": "[2]", "value": "smaller than 2.1 μm"}, {"measurement": "optical diameter below which 90% by volume of the particles lie", "setting": "[2]", "value": "smaller than 5 μm"}]}, {"compound": "CC(F)F", "note": "[HFC-152a, 1,1-Difluoroethane]", "values": [{"measurement": "Water Solubility in Propellant", "setting": "[1]; @25", "value": "2100@25 ppm"}]}, {"compound": "COc1ccc(CC(C)NCC(O)c2ccc(O)c(NC=O)c2)cc1.O=C(O)/C=C/C(=O)O", "note": "(racemic) [formoterol fumarate, (±)-2-hydroxy-5-[(1RS)-1-hydroxy-2-[[(1RS)-2-(4-methoxyphenyl)-1-methylethyl]-amino]ethyl]formanilide fumarate]", "values": [{"measurement": "optical diameter below which 50% by volume of the particles lie", "setting": "[2]", "value": "smaller than 1.6 μm"}, {"measurement": "optical diameter below which 90% by volume of the particles lie", "setting": "[2]", "value": "smaller than 3.9 μm"}]}, {"compound": "albuterol sulfate", "values": [{"measurement": "optical diameter below which 50% by volume of the particles lie", "setting": "[2]", "value": "smaller than 1.5 μm"}, {"measurement": "optical diameter below which 90% by volume of the particles lie", "setting": "[2]", "value": "smaller than 3.3 μm"}]}, {"compound": "FCC(F)(F)F", "note": "[HFA-134a, 1,1,1,2-tetrafluoroethane]", "values": [{"measurement": "Water Solubility in Propellant", "setting": "[1]; @25", "value": "1100@25 ppm"}]}, {"compound": "FC=CC(F)(F)F", "note": "[HFO-1234ze, 1,3,3,3-tetrafluoropropene]", "values": [{"measurement": "Water Solubility in Propellant", "setting": "[1]; @20", "value": "225@20 ppm"}]}, {"compound": "CCCC1O[C@@H]2C[C@H]3[C@@H]4CCC5=CC(=O)C=C[C@]5(C)[C@H]4[C@@H](O)C[C@]3(C)[C@]2(C(=O)CO)O1", "note": "(stereo partly drawn) [budesonide, 16,17-(butylidenebis(oxy))-11,21-dihydroxy-(11-β,16-α)-pregna-1,4-diene-3,20-dione]", "values": [{"measurement": "stability of aPSD by NGI", "setting": "[3]", "value": "stable for twelve months"}, {"measurement": "stability of aPSD by NGI", "setting": "[4]", "value": "stable for twelve months"}]}, {"compound": "C=C(F)C(F)(F)F", "note": "[HFO-1234yf, 2,3,3,3-Tetrafluoropropene]", "values": [{"measurement": "Water Solubility in Propellant", "setting": "[1]; @24", "value": "200@24 ppm"}]}, {"compound": "CCCCCCCCCCCCCCCCCC(=O)OC[C@H](COP(=O)([O-])OCC[N+](C)(C)C)OC(=O)CCCCCCCCCCCCCCCCC", "note": "[DSPC, 1,2-Distearoyl-sn-glycero-3-phosphocholine]", "values": [{"measurement": "stability of aPSD by NGI", "setting": "[4]", "value": "stable for twelve months"}]}]}
